Here are results for two molecules from ChEMBL document CHEMBL1201862, “PubChem BioAssay data set” (2004).

The source made the active and inactive calls. How the calls were made is not given here. Some results are limits rather than exact numbers.

In the assay the target is T1, Exodeoxyribonuclease V (Escherichia coli (strain K12), UniProt P04993+P07648+P08394).
T1 sequence (P04993 whole entry): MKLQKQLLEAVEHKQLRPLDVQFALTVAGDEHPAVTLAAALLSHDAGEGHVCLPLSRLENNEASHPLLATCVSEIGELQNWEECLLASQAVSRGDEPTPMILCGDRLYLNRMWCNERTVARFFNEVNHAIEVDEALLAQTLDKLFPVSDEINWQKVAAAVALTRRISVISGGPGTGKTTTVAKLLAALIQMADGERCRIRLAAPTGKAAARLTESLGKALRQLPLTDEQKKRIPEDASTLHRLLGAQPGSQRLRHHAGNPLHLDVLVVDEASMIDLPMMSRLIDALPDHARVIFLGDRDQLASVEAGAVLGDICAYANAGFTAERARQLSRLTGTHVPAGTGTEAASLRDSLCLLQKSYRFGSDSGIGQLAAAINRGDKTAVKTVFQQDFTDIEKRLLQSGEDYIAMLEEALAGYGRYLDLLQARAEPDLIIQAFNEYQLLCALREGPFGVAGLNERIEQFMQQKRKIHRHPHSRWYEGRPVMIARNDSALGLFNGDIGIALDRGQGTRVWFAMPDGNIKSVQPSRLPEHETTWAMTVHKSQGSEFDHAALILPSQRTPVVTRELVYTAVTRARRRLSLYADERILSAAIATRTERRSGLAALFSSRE
T1 sequence (P07648 whole entry): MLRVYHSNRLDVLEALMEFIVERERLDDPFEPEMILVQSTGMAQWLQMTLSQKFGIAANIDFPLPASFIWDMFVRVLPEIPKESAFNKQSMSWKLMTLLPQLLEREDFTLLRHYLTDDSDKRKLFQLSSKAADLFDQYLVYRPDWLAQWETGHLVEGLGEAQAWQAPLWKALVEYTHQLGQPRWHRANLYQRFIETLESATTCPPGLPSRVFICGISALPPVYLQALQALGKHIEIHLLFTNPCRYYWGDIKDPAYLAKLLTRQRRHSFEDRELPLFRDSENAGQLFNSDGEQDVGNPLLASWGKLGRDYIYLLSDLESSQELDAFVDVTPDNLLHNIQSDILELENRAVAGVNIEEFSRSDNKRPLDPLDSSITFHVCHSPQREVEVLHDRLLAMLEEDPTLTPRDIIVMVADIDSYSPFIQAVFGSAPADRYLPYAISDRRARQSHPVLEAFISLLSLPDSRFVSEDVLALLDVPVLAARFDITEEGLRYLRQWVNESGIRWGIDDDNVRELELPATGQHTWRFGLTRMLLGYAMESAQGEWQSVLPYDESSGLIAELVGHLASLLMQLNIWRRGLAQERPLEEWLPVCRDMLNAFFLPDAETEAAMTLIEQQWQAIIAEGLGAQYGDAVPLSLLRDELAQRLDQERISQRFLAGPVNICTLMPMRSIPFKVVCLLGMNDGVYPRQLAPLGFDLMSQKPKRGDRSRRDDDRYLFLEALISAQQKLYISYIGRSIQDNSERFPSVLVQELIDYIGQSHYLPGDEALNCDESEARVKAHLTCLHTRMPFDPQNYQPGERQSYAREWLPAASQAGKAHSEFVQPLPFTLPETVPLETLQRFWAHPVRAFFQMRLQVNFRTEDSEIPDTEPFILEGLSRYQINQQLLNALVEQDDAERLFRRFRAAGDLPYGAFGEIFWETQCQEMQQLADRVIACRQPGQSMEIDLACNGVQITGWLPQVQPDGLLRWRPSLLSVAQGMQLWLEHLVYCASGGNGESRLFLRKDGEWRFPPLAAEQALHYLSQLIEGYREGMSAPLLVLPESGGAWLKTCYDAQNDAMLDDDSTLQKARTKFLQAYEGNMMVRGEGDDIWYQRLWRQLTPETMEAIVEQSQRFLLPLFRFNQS
T1 sequence (P08394 whole entry): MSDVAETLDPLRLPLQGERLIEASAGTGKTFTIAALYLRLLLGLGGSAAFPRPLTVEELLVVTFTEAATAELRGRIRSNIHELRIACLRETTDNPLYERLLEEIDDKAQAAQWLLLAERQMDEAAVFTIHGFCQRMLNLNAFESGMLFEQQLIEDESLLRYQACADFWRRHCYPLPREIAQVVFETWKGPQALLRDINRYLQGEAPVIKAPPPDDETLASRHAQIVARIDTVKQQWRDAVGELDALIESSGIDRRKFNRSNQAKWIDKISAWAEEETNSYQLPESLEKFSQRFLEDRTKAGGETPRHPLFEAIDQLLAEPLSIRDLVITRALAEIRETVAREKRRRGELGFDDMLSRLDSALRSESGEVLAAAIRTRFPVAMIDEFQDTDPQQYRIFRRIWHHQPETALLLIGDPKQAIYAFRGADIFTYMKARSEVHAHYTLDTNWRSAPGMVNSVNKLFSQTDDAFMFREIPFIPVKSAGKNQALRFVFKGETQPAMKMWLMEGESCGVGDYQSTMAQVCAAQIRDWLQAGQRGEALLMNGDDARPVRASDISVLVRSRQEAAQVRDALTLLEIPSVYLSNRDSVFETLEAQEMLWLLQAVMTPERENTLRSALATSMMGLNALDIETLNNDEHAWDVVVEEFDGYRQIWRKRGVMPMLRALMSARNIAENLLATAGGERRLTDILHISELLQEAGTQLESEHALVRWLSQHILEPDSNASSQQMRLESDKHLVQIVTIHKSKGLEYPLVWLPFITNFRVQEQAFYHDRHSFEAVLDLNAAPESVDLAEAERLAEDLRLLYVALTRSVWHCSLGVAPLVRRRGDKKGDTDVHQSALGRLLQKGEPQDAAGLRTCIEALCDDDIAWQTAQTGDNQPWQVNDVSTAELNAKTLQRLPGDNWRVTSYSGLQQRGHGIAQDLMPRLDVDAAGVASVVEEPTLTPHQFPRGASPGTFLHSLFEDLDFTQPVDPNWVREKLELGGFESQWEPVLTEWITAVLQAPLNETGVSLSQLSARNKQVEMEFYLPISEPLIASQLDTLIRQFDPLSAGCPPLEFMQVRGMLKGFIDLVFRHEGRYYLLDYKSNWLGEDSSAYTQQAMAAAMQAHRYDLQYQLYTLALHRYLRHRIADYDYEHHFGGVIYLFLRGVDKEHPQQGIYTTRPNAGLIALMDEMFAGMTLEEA
The assay is described as follows: E. coli RecBCD inhibitors, dose response, counter-screen for AddAB inhibitor project, absorbance, V66 E. coli, mutant T4 phage (AID 492957). Format: functional, cell-based, Escherichia coli str. K-12 substr. MG1655. For orientation: Counterscreens check selectivity or assay interference.

Consider `O=C(CC(O)(C(F)(F)F)C(F)(F)F)Nc1ccc(Cl)c(Cl)c1`, for which the IC50 – broadly, the point on the concentration scale where inhibition reaches its midpoint – is 44 µM (inactive). Consider `O=C(CNc1cccc2ccccc12)N/N=C/c1ccc([N+](=O)[O-])o1`, for which the IC50 is > 118 µM (inactive).
